Assays:
Bcl-2 WT = Bcl-2 WT (Homo sapiens, UniProt P10415); experiment: Bcl-2 WT inhibition, fluorescence polarization (Flu-BIM tracer) binding assay; conditions: FP; 20 nM Bcl2, 5 nM Flu-BIM, 1 h incubation; read-out: Bcl-2 w.t. (FP)
MV-4-11 cells = experiment: CCK-8 cell viability assay in MV-4-11 cells; type: cell-based; conditions: Homo sapiens, MV4-11, 72 h, 10% FBS, 3 days
How it was run: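 IC50 values come from vehicle-normalized CCK-8 absorbance at 450 nm, read 1–4 h after reagent addition. Before that, MV-4-11 cells seeded at 20000 per well were cultured 3 days at 37 °C with a compound dilution series.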

RS4; 11Bcl-2-G101V cells = experiment: CellTiter-Glo (CTG) cell viability assay in RS4;11-Bcl-2-G101V cells; type: cell-based; conditions: 72 h, 10% FBS, 3 days
How it was run: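 Luminescent ATP read-out (CellTiter-Glo) after 3-day compound treatment at 37 °C gave viability relative to vehicle, from which IC50 was fitted. Mutant Bcl-2 RS4;11 cells were seeded at 10000 per well and rested 4 h before dosing.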

Sequence of Bcl-2 WT (P10415 whole entry): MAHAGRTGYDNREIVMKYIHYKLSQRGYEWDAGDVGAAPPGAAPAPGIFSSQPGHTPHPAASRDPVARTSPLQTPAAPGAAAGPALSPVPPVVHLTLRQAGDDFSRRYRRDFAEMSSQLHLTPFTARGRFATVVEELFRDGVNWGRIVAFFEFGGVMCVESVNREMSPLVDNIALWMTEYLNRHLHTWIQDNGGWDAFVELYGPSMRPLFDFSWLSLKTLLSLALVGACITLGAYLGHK

Structure (SMILES): CC1(C)CCC(CN2CCN(c3ccc(C(=O)NS(=O)(=O)c4ccc(NC[C@H]5CC[C@](C)(O)CC5)c([N+](=O)[O-])c4)c(Oc4cnc5[nH]ccc5c4)c3)CC2)=C(c2cc(CN3CCOCC3)cs2)C1 [Example 24, 2-((1H-pyrrolo[2,3-b]pyridin-5-yl)oxy)-4-(4-((4,4-dimethyl-2-(4-(morpholinomethyl)thiophen-2-yl)cyclohex-1-en-1-yl)methyl)piperazin-1-yl)-N-((4-((((1r,4r)-4-hydroxy-4-methylcyclohexyl)methyl)amino)-3-nitrophenyl)sulfonyl)benzamide]
- IC50 (Bcl-2 WT): 15.9 nM
- IC50 (MV-4-11 cells): 40 nM
- IC50 (RS4; 11Bcl-2-G101V cells): 340 nM

Structure (SMILES): CC1(C)CCC(CN2CCN(c3ccc(C(=O)NS(=O)(=O)c4ccc(NCC5CCOCC5)c([N+](=O)[O-])c4)c(Oc4cnc5[nH]ccc5c4)c3)CC2)=C(c2ccsc2CN2CCOCC2)C1 [Example 25, 2-((1H-pyrrolo[2,3-b]pyridin-5-yl)oxy)-4-(4-((4,4-dimethyl-2-(2-(morpholinomethyl)thiophen-3-yl)cyclohex-1-en-1-yl)methyl)piperazin-1-yl)-N-((3-nitro-4-(((tetrahydro-2H-pyran-4-yl)methyl)amino)phenyl)sulfonyl)benzamide]
- IC50 (Bcl-2 WT): 25.4 nM
- IC50 (MV-4-11 cells): 225 nM
- IC50 (RS4; 11Bcl-2-G101V cells): 1810 nM

Structure (SMILES): CC1(C)CCC(CN2CCN(c3ccc(C(=O)NS(=O)(=O)c4ccc(NCC5CCOCC5)c([N+](=O)[O-])c4)c(Oc4cnc5[nH]ccc5c4)c3)CC2)=C(c2ccc(CN3CCOCC3)s2)C1 [Example 26, 2-((1H-pyrrolo[2,3-b]pyridin-5-yl)oxy)-4-(4-((4,4-dimethyl-2-(5-(morpholinomethyl)thiophen-2-yl)cyclohex-1-en-1-yl)methyl)piperazin-1-yl)-N-((3-nitro-4-(((tetrahydro-2H-pyran-4-yl)methyl)amino)phenyl)sulfonyl)benzamide]
- IC50 (Bcl-2 WT): 26.4 nM
- IC50 (MV-4-11 cells): 246 nM
- IC50 (RS4; 11Bcl-2-G101V cells): 2590 nM

Structure (SMILES): CC1(C)CCC(CN2CCN(c3ccc(C(=O)NS(=O)(=O)c4ccc(NC[C@H]5COCCO5)c([N+](=O)[O-])c4)c(Oc4cnc5[nH]ccc5c4)c3)CC2)=C(c2cc(CN3CCC(N4CCOCC4)CC3)cs2)C1 [Example 28, (S)—N-((4-(((1,4-dioxan-2-yl)methyl)amino)-3-nitrophenyl)sulfonyl)-2-((1H-pyrrolo[2,3-b]pyridin-5-yl)oxy)-4-(4-((4,4-dimethyl-2-(4-((4-morpholinopiperidin-1-yl)methyl)thiophen-2-yl)cyclohex-1-en-1-yl)methyl)piperazin-1-yl)benzamide]
- IC50 (Bcl-2 WT): 20.7 nM
- IC50 (MV-4-11 cells): 276 nM
- IC50 (RS4; 11Bcl-2-G101V cells): 1210 nM

Structure (SMILES): C[C@@H]1CN(Cc2csc(C3=C(CN4CCN(c5ccc(C(=O)NS(=O)(=O)c6ccc(NC[C@H]7COCCO7)c([N+](=O)[O-])c6)c(Oc6cnc7[nH]ccc7c6)c5)CC4)CCC(C)(C)C3)c2)C[C@H](C)N1C [Example 29, N-((4-((((S)-1,4-dioxan-2-yl)methyl)amino)-3-nitrophenyl)sulfonyl)-2-((1H-pyrrolo[2,3-b]pyridin-5-yl)oxy)-4-(4-((4,4-dimethyl-2-(4-(((3S,5R)-3,4,5-trimethylpiperazin-1-yl)methyl)thiophen-2-yl)cyclohex-1-en-1-yl)methyl)piperazin-1-yl)benzamide]
- IC50 (Bcl-2 WT): 26.7 nM
- IC50 (MV-4-11 cells): 422 nM
- IC50 (RS4; 11Bcl-2-G101V cells): 750 nM

Structure (SMILES): CC1(C)CCC(CN2CCN(c3ccc(C(=O)NS(=O)(=O)c4ccc(NC[C@H]5COCCO5)c([N+](=O)[O-])c4)c(Oc4cnc5[nH]ccc5c4)c3)CC2)=C(c2cc(CN3CCN4CCOC[C@H]4C3)cs2)C1 [Example 30, N-((4-((((S)-1,4-dioxan-2-yl)methyl)amino)-3-nitrophenyl)sulfonyl)-2-((1H-pyrrolo[2,3-b]pyridin-5-yl)oxy)-4-(4-((2-(4-(((R)-hexahydropyrazino[2,1-c][1,4]oxazin-8(1H)-yl)methyl)thiophen-2-yl)-4,4-dimethylcyclohex-1-en-1-yl)methyl)piperazin-1-yl)benzamide]
- IC50 (Bcl-2 WT): 23.6 nM
- IC50 (MV-4-11 cells): 564 nM
- IC50 (RS4; 11Bcl-2-G101V cells): 1440 nM

Structure (SMILES): CC1(C)CCC(CN2CCN(c3ccc(C(=O)NS(=O)(=O)c4ccc(NC[C@H]5COCCO5)c([N+](=O)[O-])c4)c(Oc4cnc5[nH]ccc5c4)c3)CC2)=C(c2cc(CN3CCN(C4COC4)CC3)cs2)C1 [Example 31, (S)—N-((4-(((1,4-dioxan-2-yl)methyl)amino)-3-nitrophenyl)sulfonyl)-2-((1H-pyrrolo[2,3-b]pyridin-5-yl)oxy)-4-(4-((4,4-dimethyl-2-(4-((4-(oxetan-3-yl)piperazin-1-yl)methyl)thiophen-2-yl)cyclohex-1-en-1-yl)methyl)piperazin-1-yl)benzamide]
- IC50 (Bcl-2 WT): 26 nM
- IC50 (MV-4-11 cells): 147 nM
- IC50 (RS4; 11Bcl-2-G101V cells): 880 nM

Structure (SMILES): CC1(C)CCC(CN2CCN(c3ccc(C(=O)NS(=O)(=O)c4ccc(NC[C@H]5COCCO5)c([N+](=O)[O-])c4)c(Oc4cnc5[nH]ccc5c4)c3)CC2)=C(c2cc(CN3CCC(F)(F)CC3)cs2)C1 [Example 32, (S)—N-((4-(((1,4-dioxan-2-yl)methyl)amino)-3-nitrophenyl)sulfonyl)-2-((1H-pyrrolo[2,3-b]pyridin-5-yl)oxy)-4-(4-((2-(4-((4,4-difluoropiperidin-1-yl)methyl)thiophen-2-yl)-4,4-dimethylcyclohex-1-en-1-yl)methyl)piperazin-1-yl)benzamide]
- IC50 (Bcl-2 WT): 15.9 nM
- IC50 (MV-4-11 cells): 80 nM
- IC50 (RS4; 11Bcl-2-G101V cells): 560 nM

Structure (SMILES): CC1(C)CCC(CN2CCN(c3ccc(C(=O)NS(=O)(=O)c4ccc(NC[C@H]5COCCO5)c([N+](=O)[O-])c4)c(Oc4cnc5[nH]ccc5c4)c3)CC2)=C(c2cc(-c3ccc(F)cc3)cs2)C1 [Example 33, (S)—N-((4-(((1,4-dioxan-2-yl)methyl)amino)-3-nitrophenyl)sulfonyl)-2-((1H-pyrrolo[2,3-b]pyridin-5-yl)oxy)-4-(4-((2-(4-(4-fluorophenyl)thiophen-2-yl)-4,4-dimethylcyclohex-1-en-1-yl)methyl)piperazin-1-yl)benzamide]
- IC50 (Bcl-2 WT): 23.9 nM
- IC50 (MV-4-11 cells): 6 nM
- IC50 (RS4; 11Bcl-2-G101V cells): 630 nM

Structure (SMILES): CC1(C)CCC(CN2CCN(c3ccc(C(=O)NS(=O)(=O)c4ccc(NCC5CCOCC5)c([N+](=O)[O-])c4)c(Oc4cnc5[nH]ccc5c4)c3)CC2)=C(c2cc(-c3ccccc3)cs2)C1 [Example 34, 2-((1H-pyrrolo[2,3-b]pyridin-5-yl)oxy)-4-(4-((4,4-dimethyl-2-(4-phenylthiophen-2-yl)cyclohex-1-en-1-yl)methyl)piperazin-1-yl)-N-((3-nitro-4-(((tetrahydro-2H-pyran-4-yl)methyl)amino)phenyl)sulfonyl)benzamide]
- IC50 (Bcl-2 WT): 41.1 nM
- IC50 (MV-4-11 cells): 18 nM
- IC50 (RS4; 11Bcl-2-G101V cells): 1460 nM

Structure (SMILES): CC1(C)CCC(CN2CCN(c3ccc(C(=O)NS(=O)(=O)c4ccc(NCC5CCOCC5)c([N+](=O)[O-])c4)c(Oc4cnc5[nH]ccc5c4)c3)CC2)=C(c2ccsc2-c2ccccc2)C1 [Example 35, 2-((1H-pyrrolo[2,3-b]pyridin-5-yl)oxy)-4-(4-((4,4-dimethyl-2-(2-phenylthiophen-3-yl)cyclohex-1-en-1-yl)methyl)piperazin-1-yl)-N-((3-nitro-4-(((tetrahydro-2H-pyran-4-yl)methyl)amino)phenyl)sulfonyl)benzamide]
- IC50 (Bcl-2 WT): 40.4 nM
- IC50 (MV-4-11 cells): 799 nM
- IC50 (RS4; 11Bcl-2-G101V cells): 6160 nM

Structure (SMILES): CC1(C)CCC(CN2CCN(c3ccc(C(=O)NS(=O)(=O)c4ccc(NC[C@H]5CC[C@@](C)(O)CC5)c([N+](=O)[O-])c4)c(Oc4cnc5[nH]ccc5c4)c3)CC2)=C(c2cc(-c3ccc(F)cc3)cs2)C1 [Example 36, 2-((1H-pyrrolo[2,3-b]pyridin-5-yl)oxy)-4-(4-((2-(4-(4-fluorophenyl)thiophen-2-yl)-4,4-dimethylcyclohex-1-en-1-yl)methyl)piperazin-1-yl)-N-((4-((((1s,4s)-4-hydroxy-4-methylcyclohexyl)methyl)amino)-3-nitrophenyl)sulfonyl)benzamide]
- IC50 (Bcl-2 WT): 36.3 nM
- IC50 (MV-4-11 cells): 36 nM
- IC50 (RS4; 11Bcl-2-G101V cells): 570 nM

Structure (SMILES): CC1(C)CCC(CN2CCN(c3ccc(C(=O)NS(=O)(=O)c4ccc(NC[C@H]5CC[C@](C)(O)CC5)c([N+](=O)[O-])c4)c(Oc4cnc5[nH]ccc5c4)c3)CC2)=C(c2cc(-c3ccc(F)cc3)cs2)C1 [Example 37, 2-((1H-pyrrolo[2,3-b]pyridin-5-yl)oxy)-4-(4-((2-(4-(4-fluorophenyl)thiophen-2-yl)-4,4-dimethylcyclohex-1-en-1-yl)methyl)piperazin-1-yl)-N-((4-((((1r,4r)-4-hydroxy-4-methylcyclohexyl)methyl)amino)-3-nitrophenyl)sulfonyl)benzamide]
- IC50 (Bcl-2 WT): 20.5 nM
- IC50 (MV-4-11 cells): 11 nM
- IC50 (RS4; 11Bcl-2-G101V cells): 290 nM

Structure (SMILES): CC1(C)CCC(CN2CCN(c3ccc(C(=O)NS(=O)(=O)c4ccc(NC[C@H]5COCCO5)c([N+](=O)[O-])c4)c(Oc4cnc5[nH]ccc5c4)c3)CC2)=C(c2cc(-c3ccc(Cl)cc3)cs2)C1 [Example 38, (S)—N-((4-(((1,4-dioxan-2-yl)methyl)amino)-3-nitrophenyl)sulfonyl)-2-((1H-pyrrolo[2,3-b]pyridin-5-yl)oxy)-4-(4-((2-(4-(4-chlorophenyl)thiophen-2-yl)-4,4-dimethylcyclohex-1-en-1-yl)methyl)piperazin-1-yl)benzamide]
- IC50 (Bcl-2 WT): 20.2 nM
- IC50 (MV-4-11 cells): 28 nM
- IC50 (RS4; 11Bcl-2-G101V cells): 1640 nM

Structure (SMILES): CC(C)c1ccccc1-c1csc(C2=C(CN3CCN(c4ccc(C(=O)NS(=O)(=O)c5ccc(NC[C@H]6COCCO6)c([N+](=O)[O-])c5)c(Oc5cnc6[nH]ccc6c5)c4)CC3)CCC(C)(C)C2)c1 [Example 39, (S)—N-((4-(((1,4-dioxan-2-yl)methyl)amino)-3-nitrophenyl)sulfonyl)-2-((1H-pyrrolo[2,3-b]pyridin-5-yl)oxy)-4-(4-((2-(4-(2-isopropylphenyl)thiophen-2-yl)-4,4-dimethylcyclohex-1-en-1-yl)methyl)piperazin-1-yl)benzamide]
- IC50 (Bcl-2 WT): 31.6 nM
- IC50 (MV-4-11 cells): 260 nM
- IC50 (RS4; 11Bcl-2-G101V cells): 2310 nM

Reference: US12577245B2, “Sulfonyl benzamide derivatives as Bcl-2 inhibitors” (ASCENTAGE PHARMA (SUZHOU) CO., LTD., priority 2021, dated 2026)
